Source: patent US20110195420A1, “ESTROGEN AND ANTI-ESTROGEN MARKER GENES” (Merck Patent Gesellschaft, priority 2009, published 2011)
“Also recorded” adds a separate entry of the source. Like-named read-outs stand apart in the source and are kept apart here.

Key:
[1] = target: T1, ERα (Homo sapiens, UniProt P03372); conditions: consensus ERE reporter; used as low dose level; read-out: compound concentration causing a half maximal activation of the reporter gene (EC50); cited from earlier work
T1 sequence (P03372 1-595): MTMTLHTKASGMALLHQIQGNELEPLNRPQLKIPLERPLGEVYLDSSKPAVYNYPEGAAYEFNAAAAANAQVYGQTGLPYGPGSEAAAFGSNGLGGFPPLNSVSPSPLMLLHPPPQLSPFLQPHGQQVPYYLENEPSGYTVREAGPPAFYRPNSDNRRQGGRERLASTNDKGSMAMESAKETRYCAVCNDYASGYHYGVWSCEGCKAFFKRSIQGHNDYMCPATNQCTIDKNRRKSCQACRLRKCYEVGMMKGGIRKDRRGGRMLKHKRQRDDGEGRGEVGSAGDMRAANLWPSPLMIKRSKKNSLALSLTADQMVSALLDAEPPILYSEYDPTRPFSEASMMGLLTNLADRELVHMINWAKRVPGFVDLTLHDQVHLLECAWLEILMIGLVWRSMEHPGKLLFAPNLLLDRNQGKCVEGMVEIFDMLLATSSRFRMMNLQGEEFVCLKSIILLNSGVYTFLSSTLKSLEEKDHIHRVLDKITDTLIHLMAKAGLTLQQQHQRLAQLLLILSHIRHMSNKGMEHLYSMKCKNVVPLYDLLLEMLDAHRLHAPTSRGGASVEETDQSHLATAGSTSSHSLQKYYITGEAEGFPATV

[2] = system: Ishikawa plus cells; experiment: Illumina global gene expression profiling in Ishikawa plus cells after 24 h EAC treatment (ANOVA, correlation, K-Means clustering); assay type: cell-based, human
Protocol: Cells were routinely maintained in DMEM/F12 with L-Glutamine and 15 mM Hepes supplemented with 10% (v/v) FBS, 1% (v/v) penicillin (10 kU/ml)-streptomycin (10 mg/ml) solution, 0.1% (v/v) Gentamicin (50 mg/ml) and 1 mM sodium pyruvate at 37° C. and 5% CO2 in culture flasks. 5×10^5 cells were seeded onto 6-well plates in phenol-red free DMEM/F12 with L-Glutamine and 15 mM Hepes containing 10% (v/v) dextran-coated charcoal treated FBS, sodium pyruvate and antibiotics.
All experiments were performed three times with cells of passages 3-25.
After a 24 h treatment period cells were rinsed with PBS (Gibco Invitrogen, Karlsruhe, Germany), harvested and total RNA was extracted using the RNeasy Mini Kit (QIAGEN, Hilden, Germany) as described by the manufacturer, including the QIAshredder spin column procedure and on-column RNase-free DNase digestion. RNA was eluted with 40 μl of RNA-Storage solution (Ambion, Darmstadt, Germany). RNA quality control and quantification was determined using a NanoDrop® spectrophotometer (Kisker, Steinfurt, Germany) and 2100 Agilent Bio-Analyzer (Agilent Technologies, Waldbronn, Germany). Only RNA with a quality ratio A260/A280 between 1.9 and 2.1 and no evidence of peak degradation (18s/28s) was used.
Gene expression analysis was executed using Illumina Sentrix® HumanRef-8 V2 BeadChip Arrays (Illumina Inc., San Diego, Calif., USA) allowing the analysis of ˜23,000 transcripts. […] Instead of column cleanup, the bead-based Agencourt® RNAcIean™ system (Beckman Coulter, Krefeld, Germany) was applied to purify cDNA and cRNA. cRNA quantity was measured spectrophotometrically (NanoDrop®) and the 2100 Agilent Bio-Analyzer was used for quality assessment.
Seven hundred fifty nanograms of amplified biotinylated cRNA were hybridized onto the Illumina Sentrix® BeadChip in a Hybridization Cartridge under humidified conditions for 20 h at 58° C. (Hybridization oven, Illumina Inc., San Diego, Calif., USA). The chips were then washed, stained for 10 minutes with 1 μg/ml streptavidin-conjugated Cy3 (Amersham Biosciences, Buckinghamshire, UK) and finally dried by centrifugation according to the protocol provided.
Data were uploaded into Genedata's Expressionist® Analyst software (Genedata AG, Basel, Switzerland) for data normalization and statistical analysis. Data were normalized using Lowess (Locally Weighted Linear Regression) to offset non-biological differences (systematic variation) between the samples and arrays. After normalization fold-regulations for each individual compound treatment were calculated. The global gene set was reduced by filtering any signal intensity<200 (background level) to reduce error rates of multiple testing during further analysis.
Thus, only genes with a p-value and BH-Q-value less than 0.01 were accepted as significant.
For selection of characteristic estrogenicity marker genes, ANOVA was applied to the tested EACs against the vehicle controls. Only genes having a p-value and BH-Q-value less than 0.01 were accepted as significant.

[3] = Pearson correlation on significantly regulated genes, 24 h, dose not specified
[4] = Pearson correlation, 24 h, high dose
[5] = Pearson correlation, 24 h, low dose
[6] = clusters 3 and 4, same direction as ICI, 24 h
[7] = K-Means clustering, p-value/BH-Q-value<0.01, 24 h

In the case of `C[C@H]1CCCC(=O)CCC/C=C/c2cc(O)cc(O)c2C(=O)O1` [ZEA, Zearalenone], the EC50 [1] is given as 0.0025 µM, the “doses at which anti-estrogenic gene regulation was displayed” value ([2]; 24 h) is given as “only at low doses” and the “share of ER-dependent regulated genes (clusters 1 and 2) also regulated in the same direction after DES treatment” value (“share of ER-dependent regulated genes” below) ([2]; 24 h) is given as “Approximately 66%”. The “correlation of gene expression to ICI” value [2, 3] was “good correlation”, the “correlation of gene expression compared with DES” value (shortened to “correlation … compared with DES”) [2, 4] was “medium to high correlations” and the “similarity of gene expression with ICI” value [2, 4] was “little similarity”. For the same compound, the “correlation … compared with DES” value [2, 5] was “low positive correlation”, the “correlation of gene expression to ICI” value [2, 5] was “high positive correlation; also recorded: high correlations” and the “kind of regulated genes identified by K-Means clustering” value (shortened to “kind of regulated genes identified”) ([2]; high dose, 24 h) was “only ER-dependent regulated genes were identified; also recorded: Only genes with ER-dependent regulation profiles”. For the same compound, the “share of low dose deregulated genes similarly regulated by ICI (clusters 5 and 6)” value ([2]; low dose, 24 h) was about 91%.

In the case of `Oc1ccc(C=Cc2cc(O)cc(O)c2)cc1` [RESV, Resveratrol], the EC50 [1] is given as 7.5 µM, the “estrogen-like gene expression, share of significantly regulated genes” value ([2]; 24 h) is given as 48% and the “portion of the putative estrogenic marker genes regulated unidirectional to ICI” value ([2]; 24 h) is given as “one third”. The “share of ER-dependent regulated genes” value ([2]; 24 h) was 6%, the “correlation … compared with DES” value [2, 3] was “no correlation” and the “correlation of gene expression to ICI” value [2, 3] was “high positive correlation”. For the same compound, the “anti-estrogen-like gene regulation, share of significantly regulated genes” value [2, 6] was 52%.

For `O=c1c(-c2ccc(O)cc2)coc2cc(O)cc(O)c12` [GEN, Genistein], the “doses at which anti-estrogenic gene regulation was displayed” value ([2]; 24 h) was “only at low doses”, the “share of ER-dependent regulated genes” value ([2]; 24 h) was “Approximately 66%” and the “correlation of gene expression to ICI” value [2, 3] was “good correlation”. The “correlation … compared with DES” value [2, 4] was “medium to high correlations”, the “similarity of gene expression with ICI” value [2, 4] was “little similarity” and the “correlation … compared with DES” value [2, 5] was “low positive correlation”. The “correlation of gene expression to ICI” value [2, 5] was “high positive correlation; also recorded: high correlations”, the “kind of regulated genes identified” value ([2]; high dose, 24 h) was “only ER-dependent regulated genes were identified; also recorded: Only genes with ER-dependent regulation profiles” and the “share of low dose deregulated genes similarly regulated by ICI (clusters 5 and 6)” value ([2]; low dose, 24 h) was “approximately 86%”.

In the case of `CC/C(=C(/CC)c1ccc(O)cc1)c1ccc(O)cc1` [DES, Diethylstilbestrol], the “kind of regulated genes identified” value ([2]; 24 h, dose not specified) is reported as “only genes with ER-dependent expression profiles; also recorded: Only genes with ER-dependent regulation profiles”, the “number of down-regulated genes with ER-dependent expression profiles” value [2, 7] is reported as 62 and the “number of up-regulated genes with ER-dependent expression profiles” value [2, 7] is reported as 193. For the same compound, the “correlation of gene expression to ICI” value [2, 3] was “negatively correlated”.

With `C[C@]12CC[C@@H]3c4ccc(O)cc4C[C@@H](CCCCCCCCC[S+]([O-])CCCC(F)(F)C(F)(F)F)[C@H]3[C@@H]1CC[C@@H]2O` (stereo partly drawn) [ICI, ICI 182,780] the “regulation of the 87 marker genes” value ([2]; ICI 100 nM alone and ICI/compound combination, 24 h) was “Most genes showed a weaker regulation score or were diametrically regulated”.

For `Clc1ccc(C(c2ccccc2Cl)C(Cl)(Cl)Cl)cc1` (stereo not drawn) [DDT, o,p′-Dichlordiphenyltrichlorethane], the “anti-estrogen-like gene regulation, share of significantly regulated genes” value [2] was 85%, the “correlation … compared with DES” value [2] was “low positive correlation” and the “correlation of gene expression to ICI” value [2] was “high positive correlation; also recorded: high correlations; also recorded: good correlation”. The “share of ER-dependent regulated genes” value [2] was 72%.

With `CC(C)(c1ccc(O)cc1)c1ccc(O)cc1` [BPA, Bisphenol A] the “share of ER-dependent regulated genes” value ([2]; 24 h) was “Eighty”, the “correlation … compared with DES” value [2, 3] was “low positive correlation” and the “correlation of gene expression to ICI” value [2, 3] was “high positive correlation; also recorded: high correlations; also recorded: good correlation”. For the same compound, the “anti-estrogen-like gene regulation, share of significantly regulated genes” value [2, 6] was 86%.
